For 2 molecules, Ki results are on record in PMC4669411 (FEBS Open Bio, 2015).

Structures are written as SMILES.

Assay [1] deals with T1, PputG6PDH-1 (Pseudomonas putida, UniProt Q88P31).
T1 sequence (Q88P31 1-489): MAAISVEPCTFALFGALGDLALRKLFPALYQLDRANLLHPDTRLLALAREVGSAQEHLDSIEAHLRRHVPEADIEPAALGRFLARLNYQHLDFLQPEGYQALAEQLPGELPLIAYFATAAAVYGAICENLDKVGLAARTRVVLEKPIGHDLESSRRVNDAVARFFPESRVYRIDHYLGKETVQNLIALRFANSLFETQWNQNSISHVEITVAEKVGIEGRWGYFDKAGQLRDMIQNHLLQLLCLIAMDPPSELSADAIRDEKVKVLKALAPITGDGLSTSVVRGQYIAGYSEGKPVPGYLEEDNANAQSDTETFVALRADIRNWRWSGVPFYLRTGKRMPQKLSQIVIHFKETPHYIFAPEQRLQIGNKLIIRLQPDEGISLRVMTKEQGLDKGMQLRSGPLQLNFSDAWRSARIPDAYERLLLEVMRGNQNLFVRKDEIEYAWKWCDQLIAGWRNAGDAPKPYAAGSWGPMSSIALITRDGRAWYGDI
The experiment in a line: progress curves at […] nm, product inhibition, global fit. In kind it is biochemical.

The target of assay [2] is T1, PputG6PDH-1. Briefly: initial rates, NAD. In kind it is biochemical.

One may read the Ki as the dissociation constant of the complex between target and ligand, obtained from inhibition or displacement. High values mean weaker binding, low ones tighter binding. The molecule `NC(=O)C1=CN([C@@H]2O[C@H](COP(=O)(O)OP(=O)(O)OC[C@H]3O[C@@H](n4cnc5c(N)ncnc54)[C@H](O)[C@@H]3O)[C@@H](O)[C@H]2O)C=CC1` [NADH] showed a Ki at PputG6PDH-1 [1] of 480 ± 7 µM.

`NC(=O)C1=CN([C@@H]2O[C@H](COP(=O)(O)OP(=O)(O)OC[C@H]3O[C@@H](n4cnc5c(N)ncnc54)[C@H](OP(=O)(O)O)[C@@H]3O)[C@@H](O)[C@H]2O)C=CC1` [NADPH]: on PputG6PDH-1 [2], the Ki came out at 18 ± 3 µM.
